Results taken from a melting point compilation (Tetko et al.; mined from patent text by program, amines drawn as free bases though some values may be those of a salt).

Compound | melting point
COC(=O)c1cc2c(Nc3ccc4[nH]ccc4c3C)c(C#N)cnc2s1 | 255 °C
C=CCOc1ccccc1-c1ncc(C(=O)OCC)c(=O)[nH]1 | 118 to 120 °C
CN1Cc2c(C(N)=S)ncn2-c2cccc(Cl)c2C1=O | 300 to 302 °C
CNC(=O)C1=CN=C(N2CCN(C)CC2)CC1c1ccccc1C (racemic) | 137 to 138 °C
COc1ccccc1-n1c(=O)[nH]c2c(C(N)=O)nc(-c3ccnc(O)c3)nc21 | 360 to 362 °C
O=C1CC2(C(=O)N1)C(=O)N1c3ccccc3Sc3cccc2c31 (centres undefined) | > 300 °C
CCC1(CC)c2cc(-c3ccc(-c4ccc(O)cc4)cc3)ccc2-c2ccc(-c3ccc(-c4ccc(O)cc4)cc3)cc21 | > 300 °C
COC(=O)C1=C(C)NC(C)=C(C(=O)OC(C)C)C1c1cccc([N+](=O)[O-])c1 (centres undefined) | 142 to 144 °C
C#Cc1ccc(NC(=O)OC(C)(C)C)c([N+](=O)[O-])c1 | 102 °C
CCOC(=O)c1cc(-n2c(OCC)nc(C(F)(F)F)cc2=O)c(F)cc1Cl | 94 to 96 °C
CCSc1nccnc1C(=O)CC | 45 to 48 °C
CCCN(Cc1csc(C(C)C)n1)C(=O)N[C@H](C(=O)N[C@@H](Cc1ccccc1)C[C@H](O)[C@H](Cc1ccccc1)NC(=O)OCc1cncs1)C(C)C | 62 to 64 °C
COc1ccc2c(cc3n2Cc2ccccc2-3)n1 | 192 to 193 °C
COC(=O)C(O)C(NCc1ccccc1)c1ccccc1 (centres undefined) | 99 °C
N#Cc1c(N2CCN(C(=O)c3ccco3)CC2)c2cc(F)cnc2n(Cc2ccccc2)c1=O | 216 °C
CC(=O)NCCCCCCCCCCC(=O)O | 62 to 65 °C
CCC(C)(C)c1ccc(OCCCNC(=O)c2cc(NC(=O)C(Cl)(Cl)Cl)c3ccccc3c2O)c(C(C)(C)CC)c1 | 190 to 192 °C
CCc1nn(-c2cc(NC(=O)c3ccccc3)ccc2Br)c(=O)n1Cc1ccc(-c2ccccc2S(=O)(=O)NC(=O)OC(C)(C)C)cc1F | 154 to 156 °C
Cc1nc(CN2C(=O)COc3cc(N)ccc32)no1 | 146 to 148 °C
CCOC(=O)NC(=S)Nc1nnc(-c2cc(C(C)(C)C)c(O)c(C(C)(C)C)c2)s1 | > 250 °C
CS(=O)c1cccc(NC(=O)NCC(=O)N(CC(=O)N2CCCc3ccccc32)c2ccccc2)c1 (racemic) | 140 °C
Cc1cccc(CCOc2ccc(CC3SC(=O)NC3=O)cc2)n1 (centres undefined) | 156 to 157 °C
COC(=O)C1=C(C)NC(C)=C(C(=O)OCCN2CCN(C(c3ccc(Cl)cc3)c3ccc(Cl)cc3)CC2)C1c1cccc(Cl)c1Cl (centres undefined) | 104 to 107 °C
CCCCc1nc(Cl)c(C=CC(=O)OCC)n1Cc1ccc(NC(=O)c2ccccc2C(=O)O)cc1 | 180 to 181 °C
CN1CCC(C2Oc3cc(Cl)ccc3Cn3c(Cl)ccc32)CC1 (centres undefined) | 132 to 140 °C

Compound | melting point
Cn1ncc(C(=O)O)c1C(=O)Nc1ccc2nc(N3CCOCC3)nn2c1 | 294 °C
CCOC(=O)c1cn(OC)c2ccccc2c1=O | 120 to 121 °C
O=C(O)/C=C/c1cc(OC2CCOCC2)nn1Cc1ccc(Cl)cc1Cl | 191 to 192 °C
CC(C)(C)OC(=O)CN(C(=O)CN1C(=O)c2ccccc2C1=O)c1ccc2c(c1)OCO2 | 166 °C
C#Cc1cccc(NC(=O)C(Cl)Cl)c1 | 99 to 100 °C
Cc1cccc(-c2nc(Cl)cc(-c3ccccc3Cl)n2)n1 | 133 °C
O=C(O)c1cc(=O)c2cccc(/C=C/c3ccc(OCCCCc4ccccc4)cc3F)c2o1 | 73.4 to 73.5 °C
Cn1ncc2[nH]c3ccc(F)cc3c(=O)c21 | 301 °C
CCn1cc(C(=O)O)c(=O)c2cc(F)c(N3CCC(NCC(C)=O)C3)nc21 (centres undefined) | 287 to 289 °C
COc1ccc2c(c1)C(=O)C(C(=O)O)C(c1ccccc1)=N2 (centres undefined) | > 300 °C
COC(=O)CCNC(=O)C1CCCN1C(=O)OC(C)(C)C (centres undefined) | 70 °C
CCOc1nn(Cc2cc(OCc3ccc4ccccc4n3)no2)cc1CCC(=O)O | 123 to 124 °C
C#Cc1cccc(Nc2ncnc3cnc(F)cc23)c1 | 225 to 227 °C
COc1ccc(C2=NC(C)(C)CO2)c(Cc2ccccc2)c1OC | 81 to 82 °C
CC(C)(C)c1nc2cc(Cl)c([N+](=O)[O-])cc2s1 | 65 to 69 °C
CC(C)n1ncc2c(N(C)N)ncnc21 | 105 to 108 °C
Cc1cc(C2=NOC(c3cc(Cl)cc(Cl)c3)(C(F)(F)F)C2)ccc1C(=O)NCc1ccccn1 (centres undefined) | 131 to 136 °C
C=CCOc1ccc(C#N)c(Cl)c1 | 50 to 52 °C
CCOC(=O)c1cccc(CSCCNC(=O)c2c(Cl)cccc2Cl)c1 | 43 to 45 °C
O=C(CCl)CC(=O)Nc1ccccc1 | 142 to 143 °C
COc1ccc(CCNC(=O)/C=C/c2cccs2)cc1S(N)(=O)=O | 218 to 221 °C
COc1nc2c(C)cc(C)cc2c(-c2ccccc2Cl)c1N(C(N)=O)c1ccc(F)cc1F | 231 to 232 °C
CC(Cc1c[nH]c2ccccc12)(NC(=O)OC1C2CC3CC(C2)CC1C3)C(=O)NC(CN=[N+]=[N-])Cc1ccccc1 (centres undefined) | 77 to 78 °C
CNc1nn2nnnc2c2c1CCCC2 | 318 °C
C=Cn1cc(C(=O)O)c(=O)c2cc(F)c(N3CCNCC3)nc21 | 256 to 260 °C

Compound | melting point
CCc1ccc(CC(C)(C)NC(C)=O)cc1 | 90 to 92 °C
COc1ccc(NC(=O)c2ccc(F)c(F)c2)cc1NC(=S)Nc1cccc(C(=O)O)c1 | 218 to 220 °C
COc1nc(CC(=O)O)ccc1NC(=O)Nc1ccccc1Br | 195 to 197 °C
Cc1ccccc1C(=O)c1ccc(C(=O)O)o1 | 155 to 157 °C
Cc1ccc2c3c(ccc2n1)OCC(CN1CCC2(CC1)C(=O)NCN2c1ccccc1)O3 (centres undefined) | 199 to 201 °C
CCS(=O)(=O)CCC(=O)NNC(=O)N1Cc2cc(Cl)ccc2Oc2ccc(Cl)cc21 | 189 to 190 °C
CSC(=NC(C)=O)Nc1c(Cl)cccc1Cl | 137 to 140 °C
COCC1CN(c2ccc3cc(OCCS(C)=O)ccc3c2)C(=O)O1 (centres undefined) | 133 to 141 °C
CN1CC(C(Oc2ccccc2[N+](=O)[O-])c2ccccc2)OCC1=O (centres undefined) | 192 to 195 °C
CCn1nc(Br)c([N+](=O)[O-])c1CCN | 84.9 to 87.4 °C
O=C1CCC(N2C(=O)c3cccc(OCc4ccc(CN5CCC(c6ccc(Cl)cc6)CC5)cc4)c3C2=O)C(=O)N1 (centres undefined) | 236 to 238 °C
O=C1NCCc2c1c1cccc(OCc3ccccc3)c1n2COCc1ccccc1 | 188 to 190 °C
COC(=O)c1c(CC#N)ncn1C1CCCCO1 (centres undefined) | 82 to 83 °C
Nc1ncnc2c1ncn2OCC(O)CCP(=O)(O)O (centres undefined) | 265 to 267 °C
CCCS(=O)(=O)c1nc2cc(-n3nc(C)n(C)c3=O)c(F)cc2s1 | 196 to 198 °C
O=C(Nc1ccc2[nH]nc(C#Cc3ccccc3)c2c1)N[C@@H](c1ccc(Cl)c(Cl)c1)[C@@H]1CCCCN1 | 160 °C
COC(=O)Cc1ccccc1S(=O)(=O)NC(=S)Nc1nc(OC)nc(OC)n1 | 164 to 168 °C
CC(C)(C)Cn1cc(-c2ccc(Oc3ccccc3)cc2)c2c(N)ncnc21 | 158 °C
Cc1onc2c1C(=O)N(C(C)(C)C)C2=O | 48 to 50 °C
CCOc1ccc(C(c2ccc(C(C)(C)C)cc2)C(C)Cl)cc1 (centres undefined) | 74 to 75 °C
CCCc1c(OC(C(=O)O)c2ccc(OC)cc2)ccc(C(C)=O)c1O (centres undefined) | 154 to 156 °C
CN(C)C=NC(=S)Nc1ccccc1 | 139 to 143 °C
CC(=O)OCCC1CCN(CCCN2c3cc(OCc4ccccc4)ccc3Sc3c2cccc3S(=O)(=O)N(C)C)CC1 | 94 to 96 °C
O=C(CCl)c1ccc(CCO)cc1 | 41 to 45 °C
Cc1cnc2c([N+](=O)[O-])cccc2c1Cl | 126 °C

Compound | melting point
CN1CCC(OC(=O)C(C)(c2ccc(O)cc2)C2CCCC2)CC1 (centres undefined) | 128 to 130 °C
O=C(NCCCN1CCC(c2ccccc2)(c2ccccc2)CC1)N1C(=O)OCC1c1ccc(F)c(Cl)c1 (centres undefined) | 112 to 115 °C
CCCN(CCC)C(=O)C(CCC(=O)N(C)C)NC(=O)C=Cc1ccco1 (centres undefined) | 114 to 116 °C
CN1CC=C(c2c[nH]c3ccc(NS(=O)(=O)c4cccc5ccccc45)cc23)CC1 | 244 to 245 °C
CC(C)c1ccc(COc2ccc(CC(=O)O)cc2Cl)cc1 | 146 to 148 °C
O=C(OCc1ccccc1)C1=C(c2ccccc2)C(c2ccccc2)OC1=O (centres undefined) | 111 to 114 °C
O=C1c2ccccc2C(=O)N1CCCCOc1ccncc1 | 126 to 127 °C
C#Cc1ccccc1-c1ccc(I)cc1 | 114 °C
O=Cc1ccc(N2CCN(c3ccncc3)CC2)cc1 | 116 to 118 °C
NN1CCC(Cc2ccc(Cl)cc2)CC1 | 49 to 51 °C
Cn1cc(C2=C(c3cn(CCCSC4=NCCS4)c4ccccc34)C(=O)NC2=O)c2ccccc21 | 170 to 173 °C
NC(=O)N1C(=O)C(C(=O)c2cccs2)c2ncc(F)cc21 (centres undefined) | 265 °C
CNC(=C[N+](=O)[O-])NCCCCc1ccccn1 | 90 to 91 °C
Cc1cccc(CNc2ncccc2[N+](=O)[O-])n1 | 132 °C
CC1(C)SC(=O)NC1C(=O)NCCO[N+](=O)[O-] (centres undefined) | 98 to 100 °C
O=C(Nc1cc(F)cc(F)c1)c1cc(Br)ccc1O | 259 to 261 °C
Cc1nc[nH]c1CSCCNC(=N)NC#N | 125 to 127 °C
C#CCNc1cc(C(=O)OCC)cc(S(N)(=O)=O)c1Oc1ccccc1 | 189 to 190 °C
CCn1ccc(Nc2cc(Br)cn(C)c2=O)n1 | 165 to 167 °C
CCCCC1(C(F)(F)F)NC(=O)Nc2ccc(F)cc21 (racemic) | 198 °C
CCc1ccccc1S(=O)(=O)c1cc(N)c2ncccc2c1[N+](=O)[O-] | 213 to 216 °C
O=C(O)c1ccccc1C=Cc1ccccc1 | 158 to 159 °C
O=C(OCOC(=O)C1CCc2c(c3ccccc3n2C(=O)c2ccccc2)C1)c1ccccc1 (centres undefined) | 84 to 86 °C
CC(=C1SC(=O)NC1=O)c1ccc(OCCCOc2c(-c3ccc(F)cc3)n(C)c3ccccc3c2=O)c(Cl)c1 | 232 to 234 °C
